From patent US20260184708A1, “PYRIDAZINONES AND METHODS OF USE THEREOF” (GFB (ABC), LLC, priority 2017, published 2026)

target: T1, TRPC5 (Homo sapiens, UniProt Q9UL62); test: TRPC5 automated electrophysiology (Syncropatch - Spatch format); assay type: cell-based; conditions: Table 6; HEK293 cells overexpressing TRPC5
T1 construct: expressed in transfected cells; host or cells: HEK 293
T1 sequence (Q9UL62 1-973): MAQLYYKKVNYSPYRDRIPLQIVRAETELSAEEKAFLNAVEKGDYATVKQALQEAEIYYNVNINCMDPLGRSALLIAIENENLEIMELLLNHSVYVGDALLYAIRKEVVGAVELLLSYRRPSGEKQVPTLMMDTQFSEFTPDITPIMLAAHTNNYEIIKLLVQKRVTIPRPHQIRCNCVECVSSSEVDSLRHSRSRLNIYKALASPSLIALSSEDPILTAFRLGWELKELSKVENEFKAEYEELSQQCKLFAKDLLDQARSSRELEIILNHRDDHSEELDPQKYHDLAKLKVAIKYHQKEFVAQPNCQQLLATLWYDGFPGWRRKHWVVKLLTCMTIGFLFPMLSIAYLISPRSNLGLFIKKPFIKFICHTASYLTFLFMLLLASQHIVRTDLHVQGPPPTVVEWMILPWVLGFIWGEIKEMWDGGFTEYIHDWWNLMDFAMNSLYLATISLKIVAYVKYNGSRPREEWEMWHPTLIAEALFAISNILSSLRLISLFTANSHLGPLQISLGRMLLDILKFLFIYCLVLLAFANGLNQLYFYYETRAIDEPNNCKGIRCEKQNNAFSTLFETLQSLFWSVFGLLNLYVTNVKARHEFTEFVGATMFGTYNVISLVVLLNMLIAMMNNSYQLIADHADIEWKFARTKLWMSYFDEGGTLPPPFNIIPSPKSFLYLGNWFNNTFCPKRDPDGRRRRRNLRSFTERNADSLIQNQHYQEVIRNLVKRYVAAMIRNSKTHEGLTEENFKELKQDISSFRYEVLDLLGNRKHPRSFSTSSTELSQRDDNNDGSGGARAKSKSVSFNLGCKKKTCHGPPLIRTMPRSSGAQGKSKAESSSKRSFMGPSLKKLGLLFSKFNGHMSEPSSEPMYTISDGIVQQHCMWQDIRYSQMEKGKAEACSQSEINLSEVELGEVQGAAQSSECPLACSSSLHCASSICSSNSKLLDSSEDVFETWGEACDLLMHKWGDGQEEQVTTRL
Protocol: The automated electrophysiological assay was carried out at room temperature. HEK-TRPC5 cells were cultured according to our standard operating procedures. Internal and external physiological solutions were freshly prepared prior to the assay. The free internal Ca2+ concentration was buffered to 1 μM according to the WCabuf software using 10 mMHEDTA. To monitor the ion currents, a voltage ramp from −100 mV to +80 mV, over 250 ms, was applied every 15 seconds, from a holding potential of −60 mV. To stabilize the inward and outward currents the voltage was kept steady at −100 mV and +80 mV for 20 ms. After recording for a minimum of 60 seconds control period, the activator (at 10, 15, 20 or 30 μM) was applied twice, before increasing concentrations of test compound (or vehicle) were applied to the cell. This was followed by a saturating concentration of the specific blocker ML 204 (100 μM). Graphs were plotted using the maximum outward current values obtained at +80 mV during the patch-clamp recordings. Data were normalized using the SyncroPatch384 equation Inorm=1−((Iconc−IFB)/(IRef−IFB)), where Iconc is the current amplitude at each concentration of agonist, IRef is the control current amplitude and IFB is the current in the presence of the saturating blocker ML204. Graphs were constrained between the maximum and minimum values. The series resistance (<15 MΩ) and quality of seals (>100 MΩ) were continuously monitored during the experiments. Data was analyzed using the Nanion Data Control384 software. EC/IC50 values were calculated using a least squares regression algorithm (Hill equation).

| Compound | IC50 [µM] |
| --- | --- |
| O=c1[nH]ncc(N2CCc3c(nnn3Cc3cccnc3C(F)F)C2)c1Cl | 5 to 10 |
| CC1c2nnn(Cc3ccccc3C(F)F)c2CCN1c1cn[nH]c(=O)c1Cl (stereo not drawn) [drawing 924] | 1e-05 to 1 |
| O=c1[nH]ncc(Cl)c1N1CCc2c(nc(C3CC3)n2Cc2ccccc2C(F)(F)F)C1 | 10 to 500 |
| C[C@H]1Cc2c(nnn2Cc2ccccc2C(F)F)CN1c1cn[nH]c(=O)c1Cl | 10 to 500 |
| CC1c2nnn(Cc3ccccc3C(F)F)c2CCN1c1cn[nH]c(=O)c1Cl (stereo not drawn) [drawing 923] | 10 to 500 |
| CC[C@H](c1cncc(F)c1)n1cnc2c1CCN(c1cn[nH]c(=O)c1Cl)C2 | 1 to 5 |
| CC1Cc2c(nnn2Cc2ccccc2C(F)F)CN1c1cn[nH]c(=O)c1Cl (stereo not drawn) | 1e-05 to 1 |
| CCc1ncccc1Cn1nnc2c1CCN(c1cn[nH]c(=O)c1C#N)C2 [drawing 918] | 1 to 5 |
| COc1cccc(Cn2nnc3c2CCN(c2cn[nH]c(=O)c2Cl)C3)c1C | 1 to 5 |
| N#Cc1cc(F)ccc1Cn1nnc2c1CCN(c1cn[nH]c(=O)c1Cl)C2 | 5 to 10 |

target: T1, TRPC5; test: TRPC5 fluorescence assay, membrane potential dye, flexstation (FLEX); assay type: cell-based; conditions: Table 6; HEK293 cells overexpressing TRPC5
Protocol: HEK 293 cells expressing human TRPC5 cells were trypsinised, counted and seeded in black, clear-bottomed 96-well plates at a density of 50,000 cells per well and incubated overnight. Next day, the cells were loaded with membrane potential dye. Dye solution was made up according to the manufacturer's instructions in HEPES buffered Hank's balanced salt solution (HBSS). Dye solution (10 μL) was added to the wells and incubated at 37° C. for 1 hour. The test compounds and standard inhibitors were added to the wells and incubated at room temperature for 10 minutes. The plates were then placed in the flexstation and fluorescence monitored every 1.52 seconds. After 20 seconds, 10 μL of the appropriate standard agonist was added and the fluorescence monitored for 2 minutes at ex/emm: 530 nm/565 nm.

| Compound | IC50 [µM] |
| --- | --- |
| CCc1ncccc1Cn1nnc2c1CCN(c1cn[nH]c(=O)c1C#N)C2 [drawing 895] | 10 to 500 |

target: T1, TRPC5; test: TRPC5 automated patch clamp assay (Qpatch), current block after rosiglitazone stimulation; assay type: cell-based; conditions: Table 6; HEK293 cells overexpressing TRPC5; read-out: TRPC5-QPatch IC50
How it was run: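 Currents were elicited by 300 ms voltage ramps (−100 to +100 mV, every 10 s, holding −60 mV) in human TRPC5-expressing HEK 293 cells on automated patch clamp, with Rosiglitazone (30 uM) activating the channel. Internal Ca2+ buffered to 1 μM; Hill-equation fitting gave IC50.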

| Compound | IC50 [µM] |
| --- | --- |
| CCc1ncccc1Cn1nnc2c1CCN(c1cn[nH]c(=O)c1C#N)C2 [drawing 895] | 5 to 10 |
